# Results taken from US20110130450A1, “PRAVASTATIN EXTRACTION” (priority 2008, published 2011).
# Assays:
# Assay type in all cases: physicochemical
# [1] = Multi stage cross-current back-extraction from ethyl acetate at pH 5.9, distribution coefficient by HPLC; conditions: water/ethyl acetate
# Experimental: (§1) HPLC analysis was based on reversed phase liquid chromatography followed by UV-detection at 238 nm. Apparatus: Dionex HPLC-UV system comprising of a P680 pump, a TCC-100 column compartment with thermostat, a WPS-3000 auto sampler and a UVD34OU PDA detector.
# (§2) pH values mentioned in the description and claims of the present application were measured using a Radiometer PHM82 standard pH meter equipped with a Mettler Toledo Inlab 412 pH electrode (electrolyte 9823). Equilibration was carried out at 20±1° C. using a Merck pH 4.00 buffer (art. nr. 1.09435.1000) and a Merck pH 7.00 buffer (art. nr. 1.09439.1000).
# Starting material for this experiment was broth filtrate, obtained after ultra-filtration of broth obtained by fermentation of Penicillium chrysogenum transformant T1.48 as described in Example 4 of WO 2007/147827 using a 50 nm poly-sulfone membrane. The filtrate (5.25 liter, containing 1.2 g/l pravastatin and 0.37 g/l compactin) was extracted twice with ethyl acetate (2×2.5 liter) at pH 4. For a clear phase separation, the organic phases were filtered through a Seitz Z-2000 filter plate. The extraction yields were 90.6% and 8.3% respectively, so the overall extraction yield was 98.9%. The organic phases were combined and washed with water (2.5 liter), giving ethyl acetate extract (4.65 liter, yield over the wash step 97%) which was concentrated to 250 ml under vacuum at T<40° C., giving a clear solution containing ˜25 g/l pravastatin. This solution was extracted three times with water (3×250 ml) at pH 5.9. The pH was adjusted with 4N sodium hydroxide. The aqueous and organic phases were analyzed with HPLC (Table 4). As can be calculated, after the second back-extraction the total extraction yield of pravastatin in the combined aqueous phases was 91% pravastatin and after the third back-extraction the total extraction yield of pravastatin in the combined aqueous phases was 96%. The ratio pravastatin:compactin was 3:1 in the starting mixture, 26:1 after one back-extraction, 19:1 after two back-extractions and 17:1 after three back-extractions.
# [2] = Batch-wise single stage back-extraction from methyl isobutyl ketone into water, distribution coefficient by HPLC
# Experimental: as §1, §2
# One of the portions of supernatant (800 ml) obtained in Example 1, methyl isobutyl ketone (800 ml) and dicalite 448 (20 g) were mixed and the pH was adjusted to 4 with 6N sulfuric acid. The mixture was filtered over a Seitz Z-2000 filter plate. The phases of the filtrate were separated and the organic phase was washed once with water (400 ml), giving a methyl isobutyl ketone extract (750 ml) from which eight portions of 80 ml were taken. Each portion was mixed with an equal volume of water at a certain pH, varying from 4.5 to 8. After mixing, the phases were separated and analyzed by HPLC.
# [3] = Multi stage cross-current back-extraction from isobutyl acetate at pH 6, distribution coefficient by HPLC; conditions: water/isobutyl acetate
# Experimental: as §1, §2
# Starting material for this experiment was broth filtrate, obtained after ultra-filtration of broth obtained by fermentation of Penicillium chrysogenum transformant T1.48 as described in Example 4 of WO 2007/147827 using a 50 nm poly-sulfone membrane. The filtrate (2 liter, containing 1.2 g/l pravastatin and 0.37 g/l compactin) was extracted twice with isobutyl acetate (2×1 liter) at pH 4. For a clear phase separation, the organic phases were filtered through a Seitz Z-2000 filter plate. The organic phases were combined and washed with water (500 ml), giving isobutyl acetate extract (1960 ml) which was concentrated to 100 ml under vacuum at T<40° C. The concentrate was decolorized using a coal cartridge filled with Cuno C55 carbon (1.8 g carbon; diameter of carbon plate 18 cm^2). After rinsing a clear solution (150 ml) was obtained containing ˜12 g/l pravastatin and 3.8 g/l compactin. This solution was extracted three times with water (3×150 ml) at pH 6. The pH was adjusted with 25% ammonia. The aqueous and organic phases were analyzed with HPLC (Table 3). As can be calculated, after the second back-extraction the total extraction yield of pravastatin in the combined aqueous phases was 97.6% pravastatin and after the third back-extraction the total extraction yield of pravastatin in the combined aqueous phases was 99.6%. The ratio pravastatin:compactin was 3:1 in the starting mixture, 45:1 after one back-extraction, 25:1 after two back-extractions and 17:1 after three back-extractions.
# [4] = Batch-wise single stage back-extraction from ethyl acetate into water, distribution coefficient by HPLC
# Experimental: as §1, §2
# A broth obtained by fermentation of Penicillium chrysogenum transformant T1.48 as described in Example 4 of WO 2007/147827 (2 liter, containing 2.5 g/kg pravastatin and 0.8 g/kg compactin) was centrifuged and the supernatant was divided into 2 portions of 800 ml. One of these portions of supernatant (800 ml), ethyl acetate (800 ml) and dicalite 448 (20 g) were mixed and the pH was adjusted to 4 with 6N sulfuric acid. The mixture was filtered over a Seitz Z-2000 filter plate. The phases of the filtrate were separated and the organic phase was washed once with water (400 ml), giving an ethyl acetate extract (700 ml) which was divided into eight portions of 80 ml and one of 60 ml. Each portion was mixed with an equal volume of water at a certain pH, varying from 4.5 to 8. After mixing, the phases were separated and analyzed by HPLC.
SMILES,"Distribution coefficient (CAqueous phase/COrganic phase) ([1]; pH 5.9, 1st extraction)","Distribution coefficient (CAqueous phase/COrganic phase) ([1]; pH 5.9, 2nd extraction)","Distribution coefficient (CAqueous phase/COrganic phase) ([1]; pH 5.9, 3rd extraction)",Distribution coefficient (CAqueous phase/COrganic phase) ([2]; pH 4.5),Distribution coefficient (CAqueous phase/COrganic phase) ([2]; pH 5),Distribution coefficient (CAqueous phase/COrganic phase) ([2]; pH 5.5),Distribution coefficient (CAqueous phase/COrganic phase) ([2]; pH 6),Distribution coefficient (CAqueous phase/COrganic phase) ([2]; pH 6.5),Distribution coefficient (CAqueous phase/COrganic phase) ([2]; pH 7),Distribution coefficient (CAqueous phase/COrganic phase) ([2]; pH 7.5),Distribution coefficient (CAqueous phase/COrganic phase) ([2]; pH 8),"Distribution coefficient (CAqueous phase/COrganic phase) ([3]; pH 6, 1st extraction)","Distribution coefficient (CAqueous phase/COrganic phase) ([3]; pH 6, 2nd extraction)","Distribution coefficient (CAqueous phase/COrganic phase) ([3]; pH 6, 3rd extraction)",Distribution coefficient (CAqueous phase/COrganic phase) ([4]; pH 4.5),Distribution coefficient (CAqueous phase/COrganic phase) ([4]; pH 5),Distribution coefficient (CAqueous phase/COrganic phase) ([4]; pH 5.5),Distribution coefficient (CAqueous phase/COrganic phase) ([4]; pH 6),Distribution coefficient (CAqueous phase/COrganic phase) ([4]; pH 6.25),Distribution coefficient (CAqueous phase/COrganic phase) ([4]; pH 6.5),also measured
"CC[C@H](C)C(=O)O[C@H]1CCC=C2C=C[C@H](C)[C@H](CC[C@@H](O)C[C@@H](O)CC(=O)[O-])[C@H]21.[Na+] [Comp, compactin]",0.08,0.06,0.03,0.0,0.0,0.0,0.0,0.1,0.2,0.9,3.3,0.06,0.07,0.07,0.0,0.0,0.0,0.0,0.0,0.1,Distribution coefficient (CAqueous phase/COrganic phase) ([4]; pH 7): 0.3; Distribution coefficient (CAqueous phase/COrganic phase) ([4]; pH 7.5): 0.8; Distribution coefficient (CAqueous phase/COrganic phase) ([4]; pH 8): 2.9
"CC[C@H](C)C(=O)O[C@H]1C[C@H](O)C=C2C=C[C@H](C)[C@H](CC[C@@H](O)C[C@@H](O)CC(=O)[O-])[C@H]21.[Na+] [Prava, pravastatin]",1.5,1.9,0.7,0.2,0.2,0.6,1.4,4.0,12.0,37.5,83.8,4.8,5.9,5.2,0.1,0.2,0.4,1.2,1.9,3.5,Distribution coefficient (CAqueous phase/COrganic phase) ([4]; pH 7): 10.3; Distribution coefficient (CAqueous phase/COrganic phase) ([4]; pH 7.5): 27.4; Distribution coefficient (CAqueous phase/COrganic phase) ([4]; pH 8): 94.1
